Active and inactive are the calls of the source.
Legend:
[1] = cells; type: functional
[2] = biological target: Heat shock protein HSP 90-alpha (Homo sapiens, UniProt P07900); type: functional, organism-based
[3] = biological target: T1, Heat shock factor protein 1 (Mus musculus, UniProt P38532); test: enhancement of HSF1-driven luciferase signal – cell-based, NIH3T3, luminescence, dose retest, confirmation (AID 435004); type: functional;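 further: stress induced by proteasome inhibitor MG132 added 30 min after compound; luciferase reporter driven by HSF1 response element in NIH3T3 cells; actives raise luminescence as potentiators of the MG132 stress response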
T1 sequence (P38532 whole entry): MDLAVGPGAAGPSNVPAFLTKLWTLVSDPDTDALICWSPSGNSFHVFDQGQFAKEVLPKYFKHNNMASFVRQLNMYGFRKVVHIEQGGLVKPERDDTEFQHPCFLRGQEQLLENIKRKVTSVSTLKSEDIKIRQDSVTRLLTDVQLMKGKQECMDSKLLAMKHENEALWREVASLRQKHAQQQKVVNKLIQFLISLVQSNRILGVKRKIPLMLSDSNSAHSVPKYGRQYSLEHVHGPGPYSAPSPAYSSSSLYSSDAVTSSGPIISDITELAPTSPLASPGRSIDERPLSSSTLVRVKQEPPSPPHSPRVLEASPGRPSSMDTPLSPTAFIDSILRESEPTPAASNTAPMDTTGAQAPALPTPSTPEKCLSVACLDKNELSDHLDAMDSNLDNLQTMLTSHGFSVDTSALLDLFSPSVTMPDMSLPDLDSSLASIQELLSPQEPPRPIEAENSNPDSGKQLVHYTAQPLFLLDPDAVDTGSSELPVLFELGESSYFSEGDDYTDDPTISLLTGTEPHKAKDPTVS

[4] = biological target: Large T antigen (Simian virus 40, UniProt P03070); type: functional, Betapolyomavirus macacae;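 further: Confirmatory-stage PubChem screen for compounds that inhibit SV40 T antigen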
[5] = Trypanosoma cruzi growth suppression in host cells – NIH3T3 host cells, beta-gal luminescence, confirmation (AID 2044); type: functional, cell-based;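 further: intracellular parasites grown in NIH/3T3 mouse fibroblasts as host cells; luminescent beta-galactosidase reporter signal from transgenic T. cruzi replicating inside host cells; inhibitors lower the luminescence signal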
[6] = NIH3T3 cell viability loss – ATP luminescence, mouse fibroblasts, counter-screen, dose response (AID 2010); type: functional, cell-based;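 further: cells exposed to compound for about 90 hours before reading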
[7] = biological target: T2, High affinity choline transporter 1 (Homo sapiens, UniProt Q9GZV3); test: human choline transporter blockers, potency – cell-based, 5-point CRC, membrane potential dye, dose response (AID 504840); type: functional
T2 sequence (Q9GZV3 whole entry): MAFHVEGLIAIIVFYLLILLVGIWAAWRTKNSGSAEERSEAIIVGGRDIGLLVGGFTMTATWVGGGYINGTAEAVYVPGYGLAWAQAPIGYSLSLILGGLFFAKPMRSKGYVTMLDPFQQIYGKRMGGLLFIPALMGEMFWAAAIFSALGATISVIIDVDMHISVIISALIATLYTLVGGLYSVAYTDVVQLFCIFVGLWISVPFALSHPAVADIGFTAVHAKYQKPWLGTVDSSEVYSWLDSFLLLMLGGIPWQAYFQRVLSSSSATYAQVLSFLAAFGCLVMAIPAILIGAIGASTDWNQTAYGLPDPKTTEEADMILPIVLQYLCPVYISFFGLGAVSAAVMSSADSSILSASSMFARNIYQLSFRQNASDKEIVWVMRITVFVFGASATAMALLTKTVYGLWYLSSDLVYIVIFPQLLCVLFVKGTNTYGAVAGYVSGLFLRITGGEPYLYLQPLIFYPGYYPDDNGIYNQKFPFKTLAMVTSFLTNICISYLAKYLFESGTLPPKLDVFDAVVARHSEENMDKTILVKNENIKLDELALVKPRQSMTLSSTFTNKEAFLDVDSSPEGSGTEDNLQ

[8] = biological target: T3, Ubiquitin-conjugating enzyme E2 N (Homo sapiens, UniProt P61088); type: functional;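 further: Dose-response confirmation in a TR-FRET assay detecting UBC13-driven polyubiquitin chain formation, inhibition measured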
T3 sequence (P61088 whole entry): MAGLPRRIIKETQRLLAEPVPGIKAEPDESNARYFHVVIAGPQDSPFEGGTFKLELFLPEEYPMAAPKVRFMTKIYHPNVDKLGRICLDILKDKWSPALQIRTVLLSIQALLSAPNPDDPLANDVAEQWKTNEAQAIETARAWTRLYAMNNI

[9] = biological target: T4, Polyadenylate-binding protein 1 (Homo sapiens, UniProt P11940); test: MLLE binding blockers, Cy5 peptide tracer – biochemical, fluorescence polarization, Cy5-PAM2 peptide, secondary, miRNA deadenylation inhibitor project, dose response (AID 602260); type: functional; settings: read-out: IC50_Mean
[10] = biological target: T4, Polyadenylate-binding protein 1; test: MLLE domain peptide-binding blockers, IC50 – biochemical, fluorescence polarization, FITC-PAM2 peptide, dose response (AID 602259); type: functional; settings: read-out: IC50_Mean
[11] = NIH-3T3 fibroblast cytotoxicity, dose response, cytotoxicity control, cell-based, fluorescence, Alamar Blue, secondary assay (AID 2327); type: functional;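 further: NIH-3T3 mouse fibroblasts cultured with fluconazole at 8 µg/mL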
[12] = fluconazole-exposed Candida albicans growth modulators – fluorescence, retest, confirmation (AID 2467); type: functional, cell-based
[13] = reduction of Shn3 3'UTR-driven luciferase in osteoblasts – cell-based, Clone20 osteoblasts, firefly luciferase, cherry-picked, dose response (AID 624132); type: functional;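 further: firefly luciferase luminescence from reporter carrying the Shn3 3'UTR in osteoblasts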
[14] = loss of viability in HepG2 cells – cell-based, CellTiter-Glo, cherry-picked, cytotoxicity control for Shn3 inhibitor project, dose response (AID 624134); type: functional
[15] = non-specific 3'UTR reporter inhibition in Clone20-Shn3RL – cell-based, Renilla luciferase, cherry-picked, counter-screen for Shn3 inhibitor project, dose response (AID 624133); type: functional
[16] = blockers of HIV-1 envelope-mediated cell-cell fusion – cherry-pick, dose response (AID 652057); type: functional, cell-based
[17] = blockers of HIV-1 ZM109 envelope-driven cell-cell fusion – HeLa effector, CEM target cells, luciferase, cherry-pick, dose response (AID 652058); type: functional, cell-based;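 further: luciferase signal from HIV-1 Env mediated cell-cell fusion of effector and target cells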
[18] = HIV-1 AD8 envelope cell-cell fusion blockers – cherry-pick, dose response (AID 652062); type: functional, cell-based;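 further: luciferase signal from cell-cell fusion driven by HIV-1 clade B AD8 Env; potency is for inhibitors of fusion seen as a drop in luminescence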
[19] = Luminescence Cell-Based Dose Retest to Confirm Inhibitors of Cancer Stem Cells. [Related pubchem assays (depositor defined):AID2717, AID2721]; type: functional; settings: Homo sapiens
[20] = biological target: T5, Replicative DNA helicase DnaB (Mycobacterium tuberculosis, UniProt P9WMR3); test: DnaB intein splicing inhibitors, dose response, biochemical, cell-free fluorescence (AID 449749); type: functional
T5 sequence (P9WMR3 whole entry): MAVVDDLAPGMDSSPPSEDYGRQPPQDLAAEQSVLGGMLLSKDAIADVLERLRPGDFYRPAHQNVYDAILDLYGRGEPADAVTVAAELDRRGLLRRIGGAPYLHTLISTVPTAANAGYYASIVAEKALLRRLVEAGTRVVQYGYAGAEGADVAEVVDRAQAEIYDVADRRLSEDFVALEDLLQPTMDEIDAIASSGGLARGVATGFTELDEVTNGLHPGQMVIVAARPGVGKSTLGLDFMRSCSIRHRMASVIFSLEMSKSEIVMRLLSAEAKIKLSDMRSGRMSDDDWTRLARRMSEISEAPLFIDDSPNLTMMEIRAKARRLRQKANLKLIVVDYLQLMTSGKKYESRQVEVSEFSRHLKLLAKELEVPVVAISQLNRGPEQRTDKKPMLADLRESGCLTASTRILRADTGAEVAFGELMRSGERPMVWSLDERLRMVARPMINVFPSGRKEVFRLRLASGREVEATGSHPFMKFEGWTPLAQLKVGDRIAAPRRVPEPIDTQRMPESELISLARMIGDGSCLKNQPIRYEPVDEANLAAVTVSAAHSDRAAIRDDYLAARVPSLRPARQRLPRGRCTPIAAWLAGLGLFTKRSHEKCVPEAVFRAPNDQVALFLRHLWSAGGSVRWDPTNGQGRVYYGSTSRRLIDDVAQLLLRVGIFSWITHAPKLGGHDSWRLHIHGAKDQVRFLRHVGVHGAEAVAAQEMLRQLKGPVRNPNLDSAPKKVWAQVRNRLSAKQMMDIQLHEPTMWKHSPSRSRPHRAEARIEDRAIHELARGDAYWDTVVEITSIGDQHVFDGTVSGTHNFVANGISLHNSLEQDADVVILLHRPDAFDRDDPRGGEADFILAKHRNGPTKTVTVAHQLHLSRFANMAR

[21] = biological target: T6, Protein RecA (Mycobacterium tuberculosis, UniProt P9WHJ3); test: Fluorescence Cell-Free Homogeneous Dose Retest to Identify Inhibitors of RecA-Intein Splicing Activity. [Related pubchem assays (depositor defined):AID2097, AID2223, AID489010, AID492950]; type: functional
T6 sequence (P9WHJ3 whole entry): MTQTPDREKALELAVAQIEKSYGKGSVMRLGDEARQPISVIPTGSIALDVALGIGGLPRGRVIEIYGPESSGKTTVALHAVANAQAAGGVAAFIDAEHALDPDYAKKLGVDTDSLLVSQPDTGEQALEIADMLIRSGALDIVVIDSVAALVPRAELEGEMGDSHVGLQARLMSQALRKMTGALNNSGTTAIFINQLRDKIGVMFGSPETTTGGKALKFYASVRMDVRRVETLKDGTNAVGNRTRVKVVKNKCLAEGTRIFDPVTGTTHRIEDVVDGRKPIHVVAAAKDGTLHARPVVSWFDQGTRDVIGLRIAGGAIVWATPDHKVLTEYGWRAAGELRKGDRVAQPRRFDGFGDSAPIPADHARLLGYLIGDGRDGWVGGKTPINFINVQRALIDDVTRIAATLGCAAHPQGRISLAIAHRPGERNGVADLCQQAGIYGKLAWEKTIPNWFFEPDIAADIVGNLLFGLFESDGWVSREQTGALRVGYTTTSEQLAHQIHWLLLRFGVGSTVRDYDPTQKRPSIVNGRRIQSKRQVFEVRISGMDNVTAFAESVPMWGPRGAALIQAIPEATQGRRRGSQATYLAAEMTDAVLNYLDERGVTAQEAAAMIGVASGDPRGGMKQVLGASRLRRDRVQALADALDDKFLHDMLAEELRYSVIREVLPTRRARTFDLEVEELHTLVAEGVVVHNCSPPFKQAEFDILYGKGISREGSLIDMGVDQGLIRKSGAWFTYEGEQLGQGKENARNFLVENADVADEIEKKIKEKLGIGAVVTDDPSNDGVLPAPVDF

[22] = biological target: T7, Fatty acid synthase (Homo sapiens, UniProt P49327); test: inhibition of human FAS-TE enzyme activity – biochemical, endpoint fluorescence intensity, uHTS hits, dose response (AID 624327); type: functional;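 further: fluorescence from hydrolysis of an O-methyl fluorescein acyl ester substrate by the enzyme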
[23] = biological target: T7, Fatty acid synthase; test: inhibition of human FAS-TE enzyme activity – biochemical, kinetic fluorescence intensity, dose response (AID 624326); type: functional;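 further: rate of fluorescence rise from hydrolysis of a fluorogenic O-methyl fluorescein ester substrate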
[24] = biological target: Cytochrome P450 2C9 (Homo sapiens, UniProt P11712)
Chain of Cytochrome P450 2C9 (P11712 whole entry): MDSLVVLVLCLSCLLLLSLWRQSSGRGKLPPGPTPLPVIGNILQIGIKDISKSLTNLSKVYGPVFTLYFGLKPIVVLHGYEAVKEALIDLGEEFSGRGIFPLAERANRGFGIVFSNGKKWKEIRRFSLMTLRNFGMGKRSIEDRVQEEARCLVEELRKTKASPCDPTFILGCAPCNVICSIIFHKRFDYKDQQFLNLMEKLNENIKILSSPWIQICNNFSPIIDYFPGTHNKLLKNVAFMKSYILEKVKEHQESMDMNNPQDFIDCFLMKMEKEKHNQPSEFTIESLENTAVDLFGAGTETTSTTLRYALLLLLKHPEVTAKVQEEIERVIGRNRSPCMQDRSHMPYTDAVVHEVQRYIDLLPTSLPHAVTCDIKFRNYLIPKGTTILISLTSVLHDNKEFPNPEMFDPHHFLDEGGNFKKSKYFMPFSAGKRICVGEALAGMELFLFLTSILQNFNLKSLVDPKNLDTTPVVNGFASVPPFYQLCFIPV

Chain of Large T antigen (P03070 whole entry): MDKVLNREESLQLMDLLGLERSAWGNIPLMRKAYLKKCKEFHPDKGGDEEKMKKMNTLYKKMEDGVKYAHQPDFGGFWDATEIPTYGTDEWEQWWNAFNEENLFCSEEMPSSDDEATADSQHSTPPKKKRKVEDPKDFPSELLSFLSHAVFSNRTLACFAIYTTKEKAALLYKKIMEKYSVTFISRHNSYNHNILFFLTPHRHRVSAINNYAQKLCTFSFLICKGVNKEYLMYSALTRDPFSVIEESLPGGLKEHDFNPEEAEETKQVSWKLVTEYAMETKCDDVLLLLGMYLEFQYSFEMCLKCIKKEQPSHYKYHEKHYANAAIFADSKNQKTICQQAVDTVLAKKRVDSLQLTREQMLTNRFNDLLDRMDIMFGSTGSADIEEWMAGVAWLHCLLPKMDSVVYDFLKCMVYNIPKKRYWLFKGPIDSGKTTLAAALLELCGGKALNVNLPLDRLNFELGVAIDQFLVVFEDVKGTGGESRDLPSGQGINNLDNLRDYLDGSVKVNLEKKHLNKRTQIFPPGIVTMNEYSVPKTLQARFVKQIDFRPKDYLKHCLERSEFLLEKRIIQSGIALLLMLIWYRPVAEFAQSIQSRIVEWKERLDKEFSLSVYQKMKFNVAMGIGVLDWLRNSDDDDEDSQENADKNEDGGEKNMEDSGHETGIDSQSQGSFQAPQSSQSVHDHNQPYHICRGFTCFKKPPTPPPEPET
T7 sequence (P49327 whole entry): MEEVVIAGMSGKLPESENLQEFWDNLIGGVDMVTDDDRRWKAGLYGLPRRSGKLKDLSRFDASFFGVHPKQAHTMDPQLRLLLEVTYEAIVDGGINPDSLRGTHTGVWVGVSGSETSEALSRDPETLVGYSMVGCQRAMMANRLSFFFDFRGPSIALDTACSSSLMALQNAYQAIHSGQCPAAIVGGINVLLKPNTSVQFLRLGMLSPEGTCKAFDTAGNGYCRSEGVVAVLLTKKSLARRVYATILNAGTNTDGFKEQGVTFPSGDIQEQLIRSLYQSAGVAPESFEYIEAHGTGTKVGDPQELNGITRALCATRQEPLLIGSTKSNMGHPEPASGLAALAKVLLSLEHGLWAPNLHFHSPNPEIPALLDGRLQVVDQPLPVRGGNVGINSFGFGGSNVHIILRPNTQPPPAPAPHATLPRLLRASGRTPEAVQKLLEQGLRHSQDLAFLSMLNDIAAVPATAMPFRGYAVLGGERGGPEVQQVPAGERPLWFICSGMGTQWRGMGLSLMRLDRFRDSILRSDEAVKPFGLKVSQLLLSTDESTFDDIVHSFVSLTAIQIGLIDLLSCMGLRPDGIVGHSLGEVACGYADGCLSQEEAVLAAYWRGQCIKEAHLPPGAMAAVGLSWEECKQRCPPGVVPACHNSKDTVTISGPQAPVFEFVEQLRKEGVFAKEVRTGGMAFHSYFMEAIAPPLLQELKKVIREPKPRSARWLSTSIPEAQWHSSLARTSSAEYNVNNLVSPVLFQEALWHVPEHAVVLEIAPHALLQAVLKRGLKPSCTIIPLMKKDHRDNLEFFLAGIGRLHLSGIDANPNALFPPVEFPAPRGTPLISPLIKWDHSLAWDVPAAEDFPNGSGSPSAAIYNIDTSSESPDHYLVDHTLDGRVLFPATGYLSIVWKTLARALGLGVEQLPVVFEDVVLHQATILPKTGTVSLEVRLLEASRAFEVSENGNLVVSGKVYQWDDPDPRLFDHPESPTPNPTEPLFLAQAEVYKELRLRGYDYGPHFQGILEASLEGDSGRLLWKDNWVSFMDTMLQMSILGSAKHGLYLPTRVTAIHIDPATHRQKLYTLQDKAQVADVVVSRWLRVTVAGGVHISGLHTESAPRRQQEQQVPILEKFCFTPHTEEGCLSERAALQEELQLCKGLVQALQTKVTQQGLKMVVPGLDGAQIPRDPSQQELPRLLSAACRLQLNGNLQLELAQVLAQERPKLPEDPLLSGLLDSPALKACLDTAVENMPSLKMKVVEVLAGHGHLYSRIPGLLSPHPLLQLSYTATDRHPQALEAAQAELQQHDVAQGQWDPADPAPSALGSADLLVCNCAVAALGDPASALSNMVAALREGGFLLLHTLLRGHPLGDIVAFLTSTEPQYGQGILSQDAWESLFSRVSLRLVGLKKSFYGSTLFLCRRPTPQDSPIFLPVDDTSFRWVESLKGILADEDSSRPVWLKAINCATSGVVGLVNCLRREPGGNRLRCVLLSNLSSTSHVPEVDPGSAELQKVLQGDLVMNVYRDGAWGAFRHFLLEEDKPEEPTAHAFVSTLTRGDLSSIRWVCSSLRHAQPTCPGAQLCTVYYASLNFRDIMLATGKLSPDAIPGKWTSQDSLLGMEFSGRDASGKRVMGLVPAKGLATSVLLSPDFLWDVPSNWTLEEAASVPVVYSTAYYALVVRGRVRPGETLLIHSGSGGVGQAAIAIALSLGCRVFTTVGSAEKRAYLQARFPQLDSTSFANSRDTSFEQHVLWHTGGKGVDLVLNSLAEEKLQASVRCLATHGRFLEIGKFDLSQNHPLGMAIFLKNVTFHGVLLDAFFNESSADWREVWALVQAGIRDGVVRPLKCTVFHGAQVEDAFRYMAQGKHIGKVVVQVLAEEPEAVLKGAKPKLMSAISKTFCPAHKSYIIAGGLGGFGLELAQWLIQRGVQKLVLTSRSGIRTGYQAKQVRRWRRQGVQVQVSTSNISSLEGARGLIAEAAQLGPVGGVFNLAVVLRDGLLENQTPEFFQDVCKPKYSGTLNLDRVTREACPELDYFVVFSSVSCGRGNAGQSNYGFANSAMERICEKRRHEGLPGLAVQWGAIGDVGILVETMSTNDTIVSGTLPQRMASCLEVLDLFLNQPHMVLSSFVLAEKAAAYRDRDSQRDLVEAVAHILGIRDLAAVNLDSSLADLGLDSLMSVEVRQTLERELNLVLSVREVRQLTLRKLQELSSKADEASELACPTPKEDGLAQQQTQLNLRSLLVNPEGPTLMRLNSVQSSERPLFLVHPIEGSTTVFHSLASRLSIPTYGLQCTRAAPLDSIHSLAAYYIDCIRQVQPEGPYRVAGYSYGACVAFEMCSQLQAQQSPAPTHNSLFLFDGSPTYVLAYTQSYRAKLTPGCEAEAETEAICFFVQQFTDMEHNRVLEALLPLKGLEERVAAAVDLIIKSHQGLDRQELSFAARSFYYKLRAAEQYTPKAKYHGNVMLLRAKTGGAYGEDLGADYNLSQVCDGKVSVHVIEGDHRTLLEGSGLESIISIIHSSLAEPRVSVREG
T4 sequence (P11940 whole entry, the tested form may be a part): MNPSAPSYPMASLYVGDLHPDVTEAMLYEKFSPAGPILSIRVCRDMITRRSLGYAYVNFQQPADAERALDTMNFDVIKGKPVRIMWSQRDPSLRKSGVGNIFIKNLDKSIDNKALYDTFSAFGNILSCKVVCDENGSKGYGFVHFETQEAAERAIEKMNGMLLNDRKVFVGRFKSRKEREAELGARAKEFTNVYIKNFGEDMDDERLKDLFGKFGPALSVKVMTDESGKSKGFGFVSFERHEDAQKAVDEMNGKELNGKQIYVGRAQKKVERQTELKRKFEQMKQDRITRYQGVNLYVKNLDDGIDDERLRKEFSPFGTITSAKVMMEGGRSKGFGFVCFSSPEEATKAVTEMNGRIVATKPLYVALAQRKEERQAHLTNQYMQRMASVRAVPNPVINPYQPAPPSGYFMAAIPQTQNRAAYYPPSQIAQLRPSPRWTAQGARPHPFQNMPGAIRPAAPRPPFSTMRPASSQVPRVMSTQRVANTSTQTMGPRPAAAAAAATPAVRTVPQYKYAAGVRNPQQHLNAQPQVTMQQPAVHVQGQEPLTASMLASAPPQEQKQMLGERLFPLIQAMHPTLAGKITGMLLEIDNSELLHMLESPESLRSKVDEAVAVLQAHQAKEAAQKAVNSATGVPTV

CS(=O)(=O)Nc1cccc2cccnc12
IC50 [1]: 2.87 µM (active)

Cc1ccc(C(=O)ONC(=O)c2ccc(Cl)cc2)cc1[N+](=O)[O-]
AC50 [2]: 4.03 µM (active)

CCOC(=O)C1CCCN(C(=O)c2sc3nc(C)nc(N(CC)CC)c3c2C)C1 (stereo unspecified)
EC50 [3]: > 260 µM (inactive)

CC(C)c1ccc(C2CC(=O)N3CN(C)CSC3=C2C#N)cc1 (stereo unspecified)
IC50 [4]: 54.9 µM (active)

COC(=O)/C=C1/N=C(Nc2nc(C)cc(C)n2)N(c2ccc(C)c(C)c2)C1=O
EC50 [3]: > 260 µM (inactive)

O=Cc1c(NCc2ccco2)nc2ccccn2c1=O
IC50 [1]: 40.4 µM (active)

CC(C)(C)C(=O)NCC12C=CC(O1)C1C(=O)N(c3ccccc3)C(=O)C12 (stereo unspecified)
EC50 [3]: > 260 µM (inactive) | AC50 [2]: 8.25 µM (active)

COc1ccc(NC(=O)c2sccc2SCc2cccc(C(F)(F)F)c2)cc1
EC50 [5]: 2.61 µM (active) | EC50 [6]: > 60 µM (not active) | EC50 [3]: > 260 µM (inactive)

Cc1ccc(S(=O)(=O)N2[C@@H](c3ccc(Cl)cc3)C(C(=O)O)=CC[C@H]2c2ccc(Cl)cc2)cc1
IC50 [4]: > 100 µM (active) | IC50 [7]: 5.01 µM (active)

c1ccc(C2(CN3CCNC[C@H]3Cc3cccc4ccccc34)CC2)cc1
IC50 [8]: > 20 µM (inactive)

CN(C)/C=C/C(=O)/C=C/c1cn(-c2ncc(C(F)(F)F)cc2Cl)c2ccccc12
AC50 [2]: 2.9 µM (active)

CCCCCCC(=O)N(O)C1CC(=O)N(c2ccc(C)cc2)C1=O (stereo unspecified)
AC50 [2]: 1.43 µM (active) | IC50 [9]: > 66 µM (inactive) | IC50 [10]: > 66 µM (inactive)

COc1ccc2nc3oc(C(=O)NC4CCN(Cc5ccccc5)CC4)cc3cc2c1
IC50 [8]: > 20 µM (inactive)

c1csc(CNc2ncnc3sccc23)c1
EC50 [11]: > 160 µM (inconclusive) | EC50 [12]: 3.28 µM (active) | AC50 [13]: 1.8 µM (active) | AC50 [14]: 4.61 µM (active) | AC50 [15]: 4.77 µM (active) | AC50 [16]: 39.4 µM (active) | AC50 [17]: 46.1 µM (active) | AC50 [18]: 8.87 µM (active)

CCc1ccc(S(=O)(=O)N(C(=O)c2ccncc2)c2ccc(OC(=O)c3ccncc3)cc2)cc1
AC50 [2]: 1.03 µM (active)

CCCCN=C(S)NNC(=O)c1csc2ccccc12
EC50 [3]: > 260 µM (inactive)

CC1=CC2OC3CC4OC(=O)C=CC=CC(=O)OCCC(C)C(O)C(=O)OCC2(CC1)C4(C)C31CO1 (stereo unspecified)
AC50 [2]: < 0.195 µM (active)

CCCCOc1ccc(C(=O)N/N=C/c2c[nH]nc2-c2ccc(OC)c(OC)c2)cc1
EC50 [3]: > 260 µM (inactive)

CC(C)(C)OC(=O)NCCc1nnc(S(=O)(=O)Cc2ccc(Cl)cc2Cl)o1
AC50 [19]: 3.94 µM (active) | IC50 [1]: 30.1 µM (active) | AC50 [20]: 1.61 µM (active) | EC50 [21]: 4.66 µM (active) | IC50 [22]: 4.23 µM (active) | IC50 [23]: 6.42 µM (active)

O=[N+]([O-])c1ccc(/C=N/c2ccc(Cl)cc2Cl)s1
AC50 [2]: 7.83 µM (active) | AC50 [24]: 2.24 µM (inconclusive)

CC(/C=N/n1c(S)nnc1-c1cccnc1)=C\c1ccccc1
IC50 [4]: 58.1 µM (active)

C/C(=N\NC(=O)Cn1cc([N+](=O)[O-])cn1)c1ccc(O)cc1
IC50 [4]: 54.5 µM (active)
